Target: SARS-CoV-2 3CL-protease (Severe acute respiratory syndrome coronavirus 2, UniProt P0DTD1)
Assay: SARS-CoV-2 3C-Like (3CL) Protease Fluorescence Assay (FRET)
Format: biochemical
Conditions: SARS-CoV-2 3CL-protease 10 nM, test compounds 0-10 μM, duplicate, read-out: IC50

SMILES | IC50 [µM]
C[C@H](NC(=O)c1cc(F)c(F)c(F)c1)C(=O)N(C)[C@@H](CC(C)(C)C)C(=O)N1C[C@]2(C[C@H]1C#N)C(=O)Nc1ccccc12 [Example 214] | < 0.1
C[C@H](NC(=O)c1cccc2cc(F)ccc12)C(=O)N(C)[C@@H](CC(C)(C)C)C(=O)N1C[C@]2(C[C@H]1C#N)C(=O)Nc1ccccc12 [Example 215] | < 0.1
C[C@H](NC(=O)c1ccc(OC2CC2)c(OC2CC2)c1)C(=O)N(C)[C@@H](CC(C)(C)C)C(=O)N1C[C@]2(C[C@H]1C#N)C(=O)Nc1ccccc12 [Example 216] | < 0.1
CC(C)C[C@@H](C(=O)N1C[C@]2(C[C@H]1C#N)C(=O)Nc1ccccc12)N(C)C(=O)[C@H](C)NC(=O)C(C)C [Example 217] | < 0.1
C[C@H](NC(=O)c1ccc(F)cc1)C(=O)N[C@@H](CC(C)(C)C)C(=O)N1C[C@]2(C[C@H]1C#N)C(=O)Nc1ccccc12 [Example 218] | < 0.1
C[C@H](NC(=O)C(C)(C)C)C(=O)N[C@@H](CC(C)(C)C)C(=O)N1C[C@]2(C[C@H]1C#N)C(=O)Nc1ccccc12 [Example 219] | < 0.1
C[C@H](NC(=O)c1cc(F)c2nn(C3CC3)cc2c1)C(=O)N(C)[C@@H](CC(C)(C)C)C(=O)N1C[C@]2(C[C@H]1C#N)C(=O)Nc1ccccc12 [Example 220] | < 0.1
C[C@H](NC(=O)c1cnn(-c2ccc(C(F)(F)F)cc2)c1)C(=O)N(C)[C@@H](CC(C)(C)C)C(=O)N1C[C@]2(C[C@H]1C#N)C(=O)Nc1ccccc12 [Example 221] | < 0.1
C[C@H](NC(=O)C(F)(F)F)C(=O)N[C@@H](CC(C)(C)C)C(=O)N1C[C@]2(C[C@H]1C#N)C(=O)Nc1ccccc12 [Example 222] | < 0.1
CC(C)C(=O)N[C@@H](C)C(=O)N[C@@H](CC(C)(C)C)C(=O)N1C[C@]2(C[C@H]1C#N)C(=O)Nc1ccccc12 [Example 223] | < 0.1
C[C@H](NC(=O)c1ccc(F)cc1)C(=O)N(C)[C@@H](CC(C)(C)C)C(=O)N1C[C@]2(C[C@H]1C#N)C(=O)Nc1ccccc12 [Example 224] | < 0.1
CC(C)(C)C[C@H](NC(=O)c1ccc(F)cc1)C(=O)N[C@@H](CC(C)(C)C)C(=O)N1C[C@]2(C[C@H]1C#N)C(=O)Nc1ccccc12 [Example 225] | < 0.1
CC(C)(C)C[C@H](NC(=O)C(F)(F)F)C(=O)N[C@@H](CC(C)(C)C)C(=O)N1C[C@]2(C[C@H]1C#N)C(=O)Nc1ccccc12 [Example 226] | < 0.1
C[C@H](NC(=O)OCc1ccccc1)C(=O)N[C@@H](CC(C)(C)C)C(=O)N1C[C@]2(C[C@H]1C#N)C(=O)Nc1ccccc12 [Example 227] | < 0.1
CN(C(=O)[C@@H]1CC[C@@H](C2CC2)N1)[C@@H](CC(C)(C)C)C(=O)N1C[C@]2(C[C@H]1C#N)C(=O)Nc1ccccc12 [Example 228] | < 0.1
CN(C(=O)[C@@H]1C[C@@H](C(F)(F)F)CN1)[C@@H](CC(C)(C)C)C(=O)N1C[C@]2(C[C@H]1C#N)C(=O)Nc1ccccc12 [Example 229] | < 0.1
CN1C[C@H](C(F)(F)F)C[C@H]1C(=O)N(C)[C@@H](CC(C)(C)C)C(=O)N1C[C@]2(C[C@H]1C#N)C(=O)Nc1ccccc12 [Example 230] | 0.1 to 1
CN(C(=O)[C@@H]1C[C@H](c2ccccc2)CN1)[C@@H](CC(C)(C)C)C(=O)N1C[C@]2(C[C@H]1C#N)C(=O)Nc1ccccc12 [Example 231] | < 0.1
CN(C(=O)[C@@H]1C[C@@H](c2ccccc2)CN1)[C@@H](CC(C)(C)C)C(=O)N1C[C@]2(C[C@H]1C#N)C(=O)Nc1ccccc12 [Example 232] | < 0.1
CN(C(=O)[C@@H]1CC[C@@H](C(F)(F)F)N1)[C@@H](CC(C)(C)C)C(=O)N1C[C@]2(C[C@H]1C#N)C(=O)Nc1ccccc12 [Example 233] | < 0.1
CN(C(=O)[C@@H]1CC[C@H](C(F)(F)F)N1C)[C@@H](CC(C)(C)C)C(=O)N1C[C@]2(C[C@H]1C#N)C(=O)Nc1ccccc12 [Example 234] | < 0.1
CC(C)N1[C@H](C(=O)N(C)[C@@H](CC(C)(C)C)C(=O)N2C[C@]3(C[C@H]2C#N)C(=O)Nc2ccccc23)CC[C@@H]1C(F)(F)F [Example 235] | 0.1 to 1
CC(C)N1[C@H](C(F)(F)F)CC[C@H]1C(=O)N(C)[C@@H](CC(C)(C)C)C(=O)N1C[C@]2(C[C@H]1C#N)C(=O)Nc1ccccc12 [Example 236] | 0.1 to 1
CC(C)C[C@@H](C(=O)N1C[C@]2(C[C@H]1C#N)C(=O)Nc1ccccc12)N(C)C(=O)[C@H]1CC[C@H](c2ccc(F)cc2)N1C(C)C [Example 237] | < 0.1
CC(C)C[C@@H](C(=O)N1C[C@]2(C[C@H]1C#N)C(=O)Nc1ccccc12)N(C)C(=O)[C@@H]1CC[C@@H](c2ccc(F)cc2)N1C(C)C [Example 238] | < 0.1
C[C@@H]1CC[C@@H](C(=O)N(C)[C@@H](CC(C)(C)C)C(=O)N2C[C@]3(C[C@H]2C#N)C(=O)Nc2ccccc23)N1C [Example 239] | < 0.1
CCN1[C@H](C(=O)N(C)[C@@H](CC(C)C)C(=O)N2C[C@]3(C[C@H]2C#N)C(=O)Nc2ccccc23)CCC1(C)C [Example 240] | < 0.1
CC(C)C[C@@H](C(=O)N1C[C@]2(C[C@H]1C#N)C(=O)Nc1ccccc12)N(C)C(=O)[C@@H]1CC2(CC2)CN1C(C)C [Example 241] | < 0.1

SMILES | IC50 [µM]
C[C@H](NC(=O)/C=C/c1ccc(F)cc1)C(=O)N(C)[C@@H](CC(C)(C)C)C(=O)N1C[C@]2(C[C@H]1C#N)C(=O)Nc1ccccc12 [Example 242] | < 0.1
C[C@H](NC(=O)C(F)(F)Cc1ccc(F)cc1)C(=O)N(C)[C@@H](CC(C)(C)C)C(=O)N1C[C@]2(C[C@H]1C#N)C(=O)Nc1ccccc12 [Example 243] | < 0.1
C[C@H](NC(=O)C(F)(F)CCc1ccccc1)C(=O)N(C)[C@@H](CC(C)(C)C)C(=O)N1C[C@]2(C[C@H]1C#N)C(=O)Nc1ccccc12 [Example 244] | < 0.1
CC(C)(C)C[C@H](NC(=O)[C@@H](NC(=O)C(F)(F)F)c1ccccc1)C(=O)N1C[C@]2(C[C@H]1C#N)C(=O)Nc1ccccc12 [Example 245] | < 0.1
CC(C)(C)C[C@H](NC(=O)[C@@H](NC(=O)C1CCC1)c1ccccc1)C(=O)N1C[C@]2(C[C@H]1C#N)C(=O)Nc1ccccc12 [Example 246] | < 0.1
CC(C)(C)C[C@H](NC(=O)[C@@H](NC(=O)c1ccc(F)cc1)c1ccccc1)C(=O)N1C[C@]2(C[C@H]1C#N)C(=O)Nc1ccccc12 [Example 247] | < 0.1
CC(C)(C)C[C@H](NC(=O)[C@@H](NC(=O)C1(c2ccccc2)CC1)c1ccccc1)C(=O)N1C[C@]2(C[C@H]1C#N)C(=O)Nc1ccccc12 [Example 248] | < 0.1
CC(C)(C)C[C@H](NC(=O)[C@@H](NC(=O)C(F)(F)c1ccccc1)c1ccccc1)C(=O)N1C[C@]2(C[C@H]1C#N)C(=O)Nc1ccccc12 [Example 249] | < 0.1
CC(C)C[C@H](NC(=O)OC1CCC1)C(=O)N[C@@H](CC(C)(C)C)C(=O)N1C[C@]2(C[C@H]1C#N)C(=O)Nc1ccccc12 [Example 250] | < 0.1
CC(C)C[C@@H](C(=O)N1C[C@]2(C[C@H]1C#N)C(=O)Nc1ccccc12)N(C)C(=O)[C@@H]1[C@@H]2C[C@@H]2CN1C(C)C [Example 251] | 0.1 to 1
CC(C)C[C@@H](C(=O)N1C[C@]2(C[C@H]1C#N)C(=O)Nc1ccccc12)N(C)C(=O)[C@@H]1[C@@H]2C[C@@H]2CN1C1CC1 [Example 252] | 0.1 to 1
CC(C)C[C@@H](C(=O)N1C[C@]2(C[C@H]1C#N)C(=O)Nc1ccccc12)N(C)C(=O)[C@@H]1[C@@H]2C[C@@H]2CN1C [Example 253] | 0.1 to 1
CCN1C[C@H]2C[C@H]2[C@H]1C(=O)N(C)[C@@H](CC(C)C)C(=O)N1C[C@]2(C[C@H]1C#N)C(=O)Nc1ccccc12 [Example 254] | 0.1 to 1
CC(C)C[C@@H](C(=O)N1C[C@]2(C[C@H]1C#N)C(=O)Nc1ccccc12)N(C)C(=O)[C@@H]1CC2(CCCC2)CN1C(C)C [Example 255] | < 0.1
CC(C)C[C@@H](C(=O)N1C[C@]2(C[C@H]1C#N)C(=O)Nc1ccccc12)N(C)C(=O)[C@@H]1CC2(CCCC2)CN1C1CC1 [Example 256] | < 0.1
CCN1CC2(CCCC2)C[C@H]1C(=O)N(C)[C@@H](CC(C)C)C(=O)N1C[C@]2(C[C@H]1C#N)C(=O)Nc1ccccc12 [Example 257] | < 0.1
CC(C)C[C@@H](C(=O)N1C[C@]2(C[C@H]1C#N)C(=O)Nc1ccccc12)N(C)C(=O)[C@@H]1C[C@H]2C[C@H]2N1C1CC1 [Example 258] | < 0.1
CC(C)C[C@@H](C(=O)N1C[C@]2(C[C@H]1C#N)C(=O)Nc1ccccc12)N(C)C(=O)[C@@H]1C[C@H]2C[C@H]2N1C [Example 260] | < 0.1
CCN1[C@@H]2C[C@@H]2C[C@H]1C(=O)N(C)[C@@H](CC(C)C)C(=O)N1C[C@]2(C[C@H]1C#N)C(=O)Nc1ccccc12 [Example 261] | < 0.1
COCCC(=O)N[C@@H](C)C(=O)N(C)[C@@H](CC(C)(C)C)C(=O)N1C[C@]2(C[C@H]1C#N)C(=O)Nc1ccccc12 [Example 262] | < 0.1
COCCOCCC(=O)N[C@@H](C)C(=O)N(C)[C@@H](CC(C)(C)C)C(=O)N1C[C@]2(C[C@H]1C#N)C(=O)Nc1ccccc12 [Example 263] | < 0.1
C[C@H](NC(=O)CCCC(F)(F)F)C(=O)N(C)[C@@H](CC(C)(C)C)C(=O)N1C[C@]2(C[C@H]1C#N)C(=O)Nc1ccccc12 [Example 264] | < 0.1
CC(C)C[C@@H](C(=O)N1C[C@]2(C[C@H]1C#N)C(=O)Nc1ccccc12)N(C)C(=O)[C@H](C)NC(=O)C1CC1(C)C (stereo partly shown) [Example 265] | < 0.1
CC(C)C[C@@H](C(=O)N1C[C@]2(C[C@H]1C#N)C(=O)Nc1ccccc12)N(C)C(=O)[C@H](C)NC(=O)CC(F)(F)F [Example 266] | < 0.1
C[C@H](NC(=O)C(F)(F)F)C(=O)N(C)[C@@H](Cc1ccccc1)C(=O)N1C[C@]2(C[C@H]1C#N)C(=O)Nc1ccccc12 [Example 267] | < 0.1
C[C@H](NC(=O)C(F)(F)C(F)(F)F)C(=O)N(C)[C@@H](Cc1ccccc1)C(=O)N1C[C@]2(C[C@H]1C#N)C(=O)Nc1ccccc12 [Example 268] | < 0.1
C[C@H](NC(=O)C(C)(F)F)C(=O)N(C)[C@@H](Cc1ccccc1)C(=O)N1C[C@]2(C[C@H]1C#N)C(=O)Nc1ccccc12 [Example 269] | < 0.1

From patent US20260138988A1, “Spiropyrrolidine Derived Antiviral Agents” (Enanta Pharmaceuticals, Inc., priority 2021, published 2026)
